Measurements reported in ChEMBL document CHEMBL4507303, “Data for DCP probe TP-004” (2021).

Key:
[1] = tested on: Tyrosine-protein kinase ABL1 (Homo sapiens), P00519 [E255K]; conditions: Compound concentration 1000.0 nM
[2] = tested on: Tyrosine-protein kinase ABL1 (Homo sapiens), P00519 [F317L]; conditions: Compound concentration 1000.0 nM
[3] = tested on: Tyrosine-protein kinase ABL1 (Homo sapiens), P00519 [M351T]; conditions: Compound concentration 1000.0 nM
[4] = molecular target: RAC-beta serine/threonine-protein kinase (Homo sapiens) (UniProt P31751); conditions: Compound concentration 1000.0 nM
[5] = molecular target: RAC-gamma serine/threonine-protein kinase (Homo sapiens) (UniProt Q9Y243); conditions: Compound concentration 1000.0 nM
[6] = molecular target: Mitogen-activated protein kinase kinase kinase 6 (Homo sapiens) (UniProt O95382); conditions: Compound concentration 1000.0 nM
[7] = molecular target: Aurora kinase A (Homo sapiens) (UniProt O14965); conditions: Compound concentration 1000.0 nM
[8] = molecular target: Cytoplasmic tyrosine-protein kinase BMX (Homo sapiens) (UniProt P51813); conditions: Compound concentration 1000.0 nM
[9] = molecular target: Serine/threonine-protein kinase B-raf (Homo sapiens) (UniProt P15056); conditions: Compound concentration 1000.0 nM
[10] = molecular target: Cyclin-dependent kinase 11B (Homo sapiens) (UniProt P21127); conditions: Compound concentration 1000.0 nM
[11] = molecular target: Cyclin-dependent kinase-like 5 (Homo sapiens) (UniProt O76039); conditions: Compound concentration 1000.0 nM
[12] = molecular target: Dual specificity protein kinase CLK2 (Homo sapiens) (UniProt P49760); conditions: Compound concentration 1000.0 nM
[13] = tested on: Epidermal growth factor receptor (Homo sapiens), P00533 [UNDEFINED MUTATION]; conditions: Compound concentration 1000.0 nM
[14] = tested on: Epidermal growth factor receptor (Homo sapiens), P00533 [L861Q]; conditions: Compound concentration 1000.0 nM
[15] = tested on: Epidermal growth factor receptor (Homo sapiens), P00533 [T790M]; conditions: Compound concentration 1000.0 nM
[16] = molecular target: Ephrin type-A receptor 6 (Homo sapiens) (UniProt Q9UF33); conditions: Compound concentration 1000.0 nM
[17] = molecular target: Ephrin type-B receptor 4 (Homo sapiens) (UniProt P54760); conditions: Compound concentration 1000.0 nM
[18] = molecular target: Mitogen-activated protein kinase 3 (Homo sapiens) (UniProt P27361); conditions: Compound concentration 1000.0 nM
[19] = molecular target: Receptor-type tyrosine-protein kinase FLT3 (Homo sapiens) (UniProt P36888); conditions: Compound concentration 1000.0 nM
[20] = tested on: Receptor-type tyrosine-protein kinase FLT3 (Homo sapiens), P36888 [D835V]; conditions: Compound concentration 1000.0 nM
[21] = molecular target: Glycogen synthase kinase-3 beta (Homo sapiens) (UniProt P49841); conditions: Compound concentration 1000.0 nM
[22] = molecular target: Tyrosine-protein kinase HCK (Homo sapiens) (UniProt P08631); conditions: Compound concentration 1000.0 nM
[23] = molecular target: Mitogen-activated protein kinase kinase kinase 15 (Homo sapiens) (UniProt Q6ZN16); conditions: Compound concentration 1000.0 nM
[24] = molecular target: Dual specificity mitogen-activated protein kinase kinase 5 (Homo sapiens) (UniProt Q13163); conditions: Compound concentration 1000.0 nM
[25] = molecular target: Tyrosine-protein kinase Mer (Homo sapiens) (UniProt Q12866); conditions: Compound concentration 1000.0 nM
[26] = tested on: Hepatocyte growth factor receptor (Homo sapiens), P08581 [Y1235D]; conditions: Compound concentration 1000.0 nM
[27] = molecular target: Mitogen-activated protein kinase kinase kinase 9 (Homo sapiens) (UniProt P80192); conditions: Compound concentration 1000.0 nM
[28] = molecular target: Serine/threonine-protein kinase 38-like (Homo sapiens) (UniProt Q9Y2H1); conditions: Compound concentration 1000.0 nM
[29] = molecular target: Serine/threonine-protein kinase Nek1 (Homo sapiens) (UniProt Q96PY6); conditions: Compound concentration 1000.0 nM
[30] = molecular target: Serine/threonine-protein kinase Nek9 (Homo sapiens) (UniProt Q8TD19); conditions: Compound concentration 1000.0 nM
[31] = molecular target: Serine/threonine-protein kinase PAK 6 (Homo sapiens) (UniProt Q9NQU5); conditions: Compound concentration 1000.0 nM
[32] = molecular target: Cyclin-dependent kinase 17 (Homo sapiens) (UniProt Q00537); conditions: Compound concentration 1000.0 nM
[33] = molecular target: Cyclin-dependent kinase 2 homolog (Plasmodium falciparum (isolate 3D7)) (UniProt P61075); conditions: Compound concentration 1000.0 nM
[34] = molecular target: cAMP-dependent protein kinase catalytic subunit alpha (Homo sapiens) (UniProt P17612); conditions: Compound concentration 1000.0 nM
[35] = molecular target: Serine/threonine-protein kinase N1 (Homo sapiens) (UniProt Q16512); conditions: Compound concentration 1000.0 nM
[36] = molecular target: cGMP-dependent protein kinase 1 (Homo sapiens) (UniProt Q13976); conditions: Compound concentration 1000.0 nM
[37] = molecular target: Serine/threonine-protein kinase RIO3 (Homo sapiens) (UniProt O14730); conditions: Compound concentration 1000.0 nM
[38] = molecular target: Ribosomal protein S6 kinase alpha-4 (Homo sapiens) (UniProt O75676); conditions: Compound concentration 1000.0 nM
[39] = molecular target: Ribosomal protein S6 kinase alpha-1 (Homo sapiens) (UniProt Q15418); conditions: Compound concentration 1000.0 nM
[40] = molecular target: Serine/threonine-protein kinase TAO2 (Homo sapiens) (UniProt Q9UL54); conditions: Compound concentration 1000.0 nM
[41] = molecular target: TGF-beta receptor type-1 (Homo sapiens) (UniProt P36897); conditions: Compound concentration 1000.0 nM
[42] = molecular target: Serine/threonine-protein kinase 32B (Homo sapiens) (UniProt Q9NY57); conditions: Compound concentration 1000.0 nM
[43] = molecular target: 5-hydroxytryptamine receptor 2A (Homo sapiens) (UniProt P28223); conditions: Compound concentration 10.0 uM
[44] = molecular target: 5-hydroxytryptamine receptor 3A (Homo sapiens) (UniProt P46098); conditions: Compound concentration 10.0 uM
[45] = molecular target: D(1A) dopamine receptor (Homo sapiens) (UniProt P21728); conditions: Compound concentration 10.0 uM
D(1A) dopamine receptor (Homo sapiens), sequence (P21728 whole entry): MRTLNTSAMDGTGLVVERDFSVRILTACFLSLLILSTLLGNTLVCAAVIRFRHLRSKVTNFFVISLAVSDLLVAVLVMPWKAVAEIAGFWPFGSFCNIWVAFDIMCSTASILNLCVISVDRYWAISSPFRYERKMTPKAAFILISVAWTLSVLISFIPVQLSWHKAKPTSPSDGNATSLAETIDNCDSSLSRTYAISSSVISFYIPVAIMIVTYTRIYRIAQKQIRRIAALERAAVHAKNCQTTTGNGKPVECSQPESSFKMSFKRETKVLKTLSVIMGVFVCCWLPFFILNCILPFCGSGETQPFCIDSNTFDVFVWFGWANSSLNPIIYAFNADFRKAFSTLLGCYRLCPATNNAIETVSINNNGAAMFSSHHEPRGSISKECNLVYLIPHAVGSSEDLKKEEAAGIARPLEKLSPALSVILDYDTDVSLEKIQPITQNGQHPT

Cytoplasmic tyrosine-protein kinase BMX (Homo sapiens), sequence (P51813 whole entry): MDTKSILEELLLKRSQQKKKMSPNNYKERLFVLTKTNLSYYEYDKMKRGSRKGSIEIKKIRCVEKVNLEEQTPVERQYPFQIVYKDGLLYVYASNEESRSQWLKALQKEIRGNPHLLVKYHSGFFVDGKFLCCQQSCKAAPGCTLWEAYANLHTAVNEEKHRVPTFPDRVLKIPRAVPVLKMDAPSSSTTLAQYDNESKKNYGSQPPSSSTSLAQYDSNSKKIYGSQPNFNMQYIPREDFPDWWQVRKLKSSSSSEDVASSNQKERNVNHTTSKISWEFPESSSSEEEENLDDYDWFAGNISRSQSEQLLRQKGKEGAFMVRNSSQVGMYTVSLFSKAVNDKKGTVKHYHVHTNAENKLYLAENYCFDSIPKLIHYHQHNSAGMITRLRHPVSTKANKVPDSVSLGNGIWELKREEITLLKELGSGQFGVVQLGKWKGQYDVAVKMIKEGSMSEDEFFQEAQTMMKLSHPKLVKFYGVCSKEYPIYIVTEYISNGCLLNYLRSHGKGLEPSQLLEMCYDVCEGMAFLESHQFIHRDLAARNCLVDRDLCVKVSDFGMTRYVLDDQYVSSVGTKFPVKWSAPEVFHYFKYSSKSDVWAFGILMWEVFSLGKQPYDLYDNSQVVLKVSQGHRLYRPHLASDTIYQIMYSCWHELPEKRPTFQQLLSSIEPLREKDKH
Serine/threonine-protein kinase 38-like (Homo sapiens), sequence (Q9Y2H1 2-464 limits assumed): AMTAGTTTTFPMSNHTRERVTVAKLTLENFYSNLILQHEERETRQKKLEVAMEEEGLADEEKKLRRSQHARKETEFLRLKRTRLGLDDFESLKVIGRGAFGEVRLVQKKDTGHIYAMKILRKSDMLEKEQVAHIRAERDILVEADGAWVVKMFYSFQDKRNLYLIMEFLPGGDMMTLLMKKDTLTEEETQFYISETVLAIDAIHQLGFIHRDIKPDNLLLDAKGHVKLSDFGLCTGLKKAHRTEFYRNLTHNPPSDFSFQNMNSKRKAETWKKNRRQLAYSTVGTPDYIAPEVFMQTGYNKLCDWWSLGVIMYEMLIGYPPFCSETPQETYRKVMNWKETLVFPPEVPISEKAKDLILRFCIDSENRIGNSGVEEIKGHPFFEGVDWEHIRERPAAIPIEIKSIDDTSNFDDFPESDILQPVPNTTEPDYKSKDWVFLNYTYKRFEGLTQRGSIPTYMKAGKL
Mitogen-activated protein kinase kinase kinase 9 (Homo sapiens), sequence (P80192 whole entry, looked up): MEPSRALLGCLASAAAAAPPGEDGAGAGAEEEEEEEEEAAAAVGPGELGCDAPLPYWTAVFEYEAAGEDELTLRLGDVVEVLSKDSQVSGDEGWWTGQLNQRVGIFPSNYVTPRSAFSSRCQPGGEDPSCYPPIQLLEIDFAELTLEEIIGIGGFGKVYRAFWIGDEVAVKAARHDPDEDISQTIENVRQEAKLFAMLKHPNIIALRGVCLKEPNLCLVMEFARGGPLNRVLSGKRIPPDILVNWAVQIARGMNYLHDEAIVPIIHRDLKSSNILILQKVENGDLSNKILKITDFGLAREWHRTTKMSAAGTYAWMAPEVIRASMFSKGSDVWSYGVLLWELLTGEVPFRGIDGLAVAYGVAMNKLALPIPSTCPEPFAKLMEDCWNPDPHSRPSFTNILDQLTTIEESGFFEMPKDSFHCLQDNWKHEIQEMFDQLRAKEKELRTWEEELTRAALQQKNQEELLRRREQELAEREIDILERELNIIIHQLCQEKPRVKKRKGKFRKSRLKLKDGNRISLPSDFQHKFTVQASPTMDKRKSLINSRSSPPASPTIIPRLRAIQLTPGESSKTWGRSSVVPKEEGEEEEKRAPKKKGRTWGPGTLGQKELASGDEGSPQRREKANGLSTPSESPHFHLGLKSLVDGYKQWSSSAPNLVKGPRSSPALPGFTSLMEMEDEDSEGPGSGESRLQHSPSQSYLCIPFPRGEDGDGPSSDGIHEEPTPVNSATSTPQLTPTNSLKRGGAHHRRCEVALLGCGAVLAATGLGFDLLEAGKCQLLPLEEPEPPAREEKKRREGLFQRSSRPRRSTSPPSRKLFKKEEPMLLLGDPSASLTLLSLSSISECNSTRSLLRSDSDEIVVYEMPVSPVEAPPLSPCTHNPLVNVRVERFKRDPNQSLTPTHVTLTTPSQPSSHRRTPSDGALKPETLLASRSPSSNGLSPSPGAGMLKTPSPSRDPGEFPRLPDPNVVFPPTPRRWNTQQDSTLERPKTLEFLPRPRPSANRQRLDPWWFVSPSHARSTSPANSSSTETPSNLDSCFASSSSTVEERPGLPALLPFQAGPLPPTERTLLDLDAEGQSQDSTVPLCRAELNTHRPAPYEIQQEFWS
Aurora kinase A (Homo sapiens), sequence (O14965 whole entry): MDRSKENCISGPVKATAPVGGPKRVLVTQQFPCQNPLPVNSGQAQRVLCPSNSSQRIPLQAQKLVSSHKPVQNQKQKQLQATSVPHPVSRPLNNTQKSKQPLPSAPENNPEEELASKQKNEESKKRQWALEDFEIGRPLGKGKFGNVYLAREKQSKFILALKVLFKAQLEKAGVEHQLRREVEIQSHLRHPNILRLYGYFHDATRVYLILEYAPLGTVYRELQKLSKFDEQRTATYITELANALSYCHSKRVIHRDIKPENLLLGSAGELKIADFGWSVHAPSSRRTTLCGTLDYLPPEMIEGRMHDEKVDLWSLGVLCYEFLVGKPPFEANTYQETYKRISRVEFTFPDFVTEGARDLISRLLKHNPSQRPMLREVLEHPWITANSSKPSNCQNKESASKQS
Serine/threonine-protein kinase TAO2 (Homo sapiens), sequence (Q9UL54 whole entry): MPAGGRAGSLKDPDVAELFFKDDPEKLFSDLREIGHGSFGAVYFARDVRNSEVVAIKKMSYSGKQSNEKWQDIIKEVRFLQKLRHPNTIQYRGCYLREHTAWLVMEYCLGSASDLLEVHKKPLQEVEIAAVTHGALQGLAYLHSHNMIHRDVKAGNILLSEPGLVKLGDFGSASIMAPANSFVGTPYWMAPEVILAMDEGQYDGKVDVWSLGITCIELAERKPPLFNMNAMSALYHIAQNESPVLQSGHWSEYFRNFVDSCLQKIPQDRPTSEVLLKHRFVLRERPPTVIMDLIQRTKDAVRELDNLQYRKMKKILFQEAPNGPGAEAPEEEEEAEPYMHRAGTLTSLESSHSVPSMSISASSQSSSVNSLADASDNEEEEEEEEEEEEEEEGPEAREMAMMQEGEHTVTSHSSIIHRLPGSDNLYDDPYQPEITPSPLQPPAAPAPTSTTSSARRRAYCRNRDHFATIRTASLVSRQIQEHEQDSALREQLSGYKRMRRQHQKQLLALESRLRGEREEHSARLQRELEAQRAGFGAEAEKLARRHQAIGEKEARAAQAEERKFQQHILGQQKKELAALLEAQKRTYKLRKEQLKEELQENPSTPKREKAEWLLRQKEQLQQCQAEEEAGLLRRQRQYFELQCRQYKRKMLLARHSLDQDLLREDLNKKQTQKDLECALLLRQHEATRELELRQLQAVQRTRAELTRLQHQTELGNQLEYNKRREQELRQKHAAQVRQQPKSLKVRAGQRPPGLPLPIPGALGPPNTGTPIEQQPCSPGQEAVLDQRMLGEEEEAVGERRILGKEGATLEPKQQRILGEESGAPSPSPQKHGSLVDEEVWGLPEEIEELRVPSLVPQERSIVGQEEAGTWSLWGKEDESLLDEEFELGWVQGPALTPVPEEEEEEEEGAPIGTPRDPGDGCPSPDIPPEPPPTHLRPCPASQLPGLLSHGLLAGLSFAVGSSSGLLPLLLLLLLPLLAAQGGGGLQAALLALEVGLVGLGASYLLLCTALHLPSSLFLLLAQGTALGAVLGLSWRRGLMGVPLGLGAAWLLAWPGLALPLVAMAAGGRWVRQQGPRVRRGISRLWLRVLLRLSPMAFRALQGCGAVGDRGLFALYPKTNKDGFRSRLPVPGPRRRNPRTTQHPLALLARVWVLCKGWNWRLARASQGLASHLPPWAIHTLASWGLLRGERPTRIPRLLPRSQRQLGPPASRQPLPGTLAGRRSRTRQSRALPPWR
cGMP-dependent protein kinase 1 (Homo sapiens), sequence (Q13976 whole entry): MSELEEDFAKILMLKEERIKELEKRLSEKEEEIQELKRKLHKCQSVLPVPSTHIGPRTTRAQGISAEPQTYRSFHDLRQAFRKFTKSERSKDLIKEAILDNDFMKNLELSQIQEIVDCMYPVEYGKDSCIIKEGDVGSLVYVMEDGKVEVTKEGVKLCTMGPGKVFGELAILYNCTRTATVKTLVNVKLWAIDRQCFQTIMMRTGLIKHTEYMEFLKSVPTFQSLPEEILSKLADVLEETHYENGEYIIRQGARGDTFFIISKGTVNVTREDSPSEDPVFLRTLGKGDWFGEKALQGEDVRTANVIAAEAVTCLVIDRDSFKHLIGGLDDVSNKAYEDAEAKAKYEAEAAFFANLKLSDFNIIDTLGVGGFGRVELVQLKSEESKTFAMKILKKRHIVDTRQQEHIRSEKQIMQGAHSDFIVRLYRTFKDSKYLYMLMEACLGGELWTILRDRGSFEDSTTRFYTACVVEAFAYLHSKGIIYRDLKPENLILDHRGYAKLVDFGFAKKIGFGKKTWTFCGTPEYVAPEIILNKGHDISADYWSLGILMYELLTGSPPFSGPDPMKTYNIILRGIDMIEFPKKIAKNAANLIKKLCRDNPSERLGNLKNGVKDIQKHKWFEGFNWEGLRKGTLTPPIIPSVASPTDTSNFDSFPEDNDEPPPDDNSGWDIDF

Cc1nc(N2CC[C@@H](O)C2)ncc1-c1cc(C(F)(F)F)cc2[nH]ncc12 [TP-004]
inactive: residual activity [1] 77% | residual activity [2] 100% | residual activity [3] 72% | residual activity [4] 87% | residual activity [5] 77% | residual activity [6] 68% | residual activity [7] 87% | residual activity [8] 100% | residual activity [9] 73% | residual activity [10] 94% | residual activity [11] 77% | residual activity [12] 100% | residual activity [13] 100% | residual activity [14] 100% | residual activity [15] 93% | residual activity [16] 100% | residual activity [17] 100% | residual activity [18] 100% | residual activity [19] 67% | residual activity [20] 58% | residual activity [21] 65% | residual activity [22] 100% | residual activity [23] 100% | residual activity [24] 68% | residual activity [25] 100% | residual activity [26] 81% | residual activity [27] 100% | residual activity [28] 87% | residual activity [29] 100% | residual activity [30] 96% | residual activity [31] 100% | residual activity [32] 91% | residual activity [33] 61% | residual activity [34] 83% | residual activity [35] 100% | residual activity [36] 77% | residual activity [37] 100% | residual activity [38] 84% | residual activity [39] 91% | residual activity [40] 100% | residual activity [41] 100% | residual activity [42] 100% | inhibition [43] -5.62% | inhibition [44] 6.06% | inhibition [45] 11.1%
